Results as given in US20210255193A1, “LYSINE REACTIVE PROBES AND USES THEREOF” (The Scripps Research Institute, priority 2017, published 2021).

Columns and labels:
Test in all cases: competitive isoTOP-ABPP
Settings in all cases: 50 uM, 231 sol, in vitro
[1] = biological target: T1, HDHD3 Haloacid dehalogenase-like hydrolase domain-containing protein 3 (Homo sapiens, UniProt Q9BSH5); format: binding; parameters: key to isoTOP-ABPP reactivity ratio at lysine Q9BSH5_K15: R = MS1 peak area ratio, DMSO (heavy) / compound-treated (light)
T1 construct: isoTOP-ABPP experiments performed in cell lysates (in vitro); endogenous in cells; host or cells: soluble proteome of human cancer cell lines (MDA-MB-231; Ramos and Jurkat also prepared)
T1 sequence (Q9BSH5 1-251): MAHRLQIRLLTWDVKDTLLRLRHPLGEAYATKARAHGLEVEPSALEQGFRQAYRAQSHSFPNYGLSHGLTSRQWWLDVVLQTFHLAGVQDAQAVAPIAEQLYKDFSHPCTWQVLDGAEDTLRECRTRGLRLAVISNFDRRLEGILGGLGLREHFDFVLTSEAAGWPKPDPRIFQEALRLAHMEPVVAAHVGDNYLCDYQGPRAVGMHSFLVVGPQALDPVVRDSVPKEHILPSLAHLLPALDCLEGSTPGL
Description: (§1) In vitro covalent fragment treatment for isoTOP-ABPP. All compounds were made up as solutions in DMSO (100×) and were used at a final concentration of 50 μM for activated esters and 100 μM for guanidinylating agents. For each profiling sample, 0.5 ml of lysate was treated with 5 μl of the 100× compound stock solution or 5 μl of DMSO. Samples were treated with activated esters for
(§2) STP-alkyne labeling and click chemistry. For concentration-dependent reactivity measurements by isoTOP-ABPP, 0.5 ml proteome aliquots were treated at ambient temperature with 1 mM STP-alkyne 1 (5 μl of 100 mM stock in DMSO) and 0.1 mM STP alkyne 1 (5 μl of 10 mM stock in DMSO), respectively. For competitive isoTOP-ABPP, after in vitro fragment treatment (detailed above), the samples were labeled for 1 h at ambient temperature with 0.1 mM STP-alkyne 1 (5 μl of 10 mM stock in DMSO). Samples were conjugated by copper-mediated azide-alkyne cycloaddition (CuAAC) to either the light (1 mM STP-alkyne or fragment treated) or heavy (0.1 mM STP-alkyne or DMSO treated) TEV tags (10 μl of 5 mM stocks in DMSO, final concentration=100 μM) using tris(2-carboxyethyl)phosphine hydrochloride
(§3) R value calculation and processing. The ratios of light and heavy MS1 peaks for each unique peptide were quantified with a CIMAGE software using default parameters (3 MS1 acquisitions per peak and signal to noise threshold set to 2.5). For reactivity measurements by isoTOP-ABPP, the R value was calculated from the ratio of MS1 peak areas, comparing the 1 mM STP alkyne sample (light TEV tag) with the 0.1 mM STP alkyne sample (heavy TEV tag). For competitive isoTOP-ABPP, the R value was calculated from the ratio of MS1 peak areas, comparing the DMSO treated sample (heavy TEV tag) with the compound treated sample (light TEV tag). […] Ratios for unique peptide entries are calculated for each experiment; overlapping peptides with the same modified lysine (for example, different charge states, MudPIT chromatographic steps or tryptic termini) are grouped together and the median ratio is reported as the final ratio (R). The peptide ratios reported by CIMAGE were further filtered to ensure the removal or correction of low-quality ratios in each individual data set. The quality filters applied were the following: removal of half tryptic peptides; for ratios with high standard deviations from the median (90% of the median or above) the lowest ratio was taken instead of the median; removal of peptides with R=20 and only a single MS2 event triggered during the elution of the parent ion; manual annotation of all the peptides with ratios of 20, removing any peptides with low quality elution profiles that remained after the previous curation steps (only done for competitive isoTOP-ABPP).
(§4) Cross-data processing for fragment screening. For compound treated samples, biological replicates of the same condition were averaged, if the standard deviation was below 60% of the mean; otherwise, for lysines with at least one R value <4 for a particular compound, the lowest value of the ratio set was taken. For lysines, where all R values for a particular compound were ≥4, the average was reported. For peptides containing several possible modified lysines, the lysine with the highest number of quantification events was used for analysis and the remaining, redundant peptides were reported as alternative modification sites. Peptides included in the aggregate dataset (those used for further bioinformatics and statistical analyses) were required to have been quantified in 2 experiments for competitive isoTOP-ABPP. Lysines were categorized as liganded, if they had at least one ratio R≥4 (hit fragments). For liganded lysines with R=20 for all liganding events, lysines were required to have been quantified with R=20 in two separate experiments and were further required to have been quantified with R<20 in one additional experiment.

[2] = biological target: T2, AGFG1 Arf-GAP domain and FG repeat-containing protein 1 (Homo sapiens, UniProt P52594); format: binding; parameters: key to isoTOP-ABPP reactivity ratio at lysine P52594_K134: R = MS1 peak area ratio, DMSO (heavy) / compound-treated (light)
T2 construct: isoTOP-ABPP experiments performed in cell lysates (in vitro); endogenous in cells; host or cells: soluble proteome of human cancer cell lines (MDA-MB-231, Ramos, Jurkat)
T2 sequence (P52594 1-562): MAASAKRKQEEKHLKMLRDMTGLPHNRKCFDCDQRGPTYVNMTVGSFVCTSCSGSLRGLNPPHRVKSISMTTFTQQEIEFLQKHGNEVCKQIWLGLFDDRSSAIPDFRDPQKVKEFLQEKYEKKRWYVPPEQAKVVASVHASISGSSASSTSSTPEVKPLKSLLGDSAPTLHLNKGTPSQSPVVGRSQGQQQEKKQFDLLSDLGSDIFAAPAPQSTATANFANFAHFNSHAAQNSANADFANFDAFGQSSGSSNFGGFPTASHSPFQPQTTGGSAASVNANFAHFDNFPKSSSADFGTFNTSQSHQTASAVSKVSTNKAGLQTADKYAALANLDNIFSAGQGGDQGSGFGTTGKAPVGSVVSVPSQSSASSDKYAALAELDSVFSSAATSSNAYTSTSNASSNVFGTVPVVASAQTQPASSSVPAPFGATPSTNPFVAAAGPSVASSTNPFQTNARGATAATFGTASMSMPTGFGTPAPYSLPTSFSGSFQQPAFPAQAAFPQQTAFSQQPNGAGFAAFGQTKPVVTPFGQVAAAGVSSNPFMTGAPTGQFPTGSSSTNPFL
Description: as §1, §2, §3, §4

[3] = biological target: T3, ABCE1 ATP-binding cassette sub-family E member 1 (Homo sapiens, UniProt P61221)
T3 construct: isoTOP-ABPP experiments performed in cell lysates (in vitro); endogenous in cells; host or cells: soluble proteome of human cancer cell lines (MDA-MB-231, Ramos, Jurkat)
Description: as §1, §2, §3, §4

isoTOP-ABPP reactivity ratio at lysine Q9BSH5_K15 [1]: 13.8
isoTOP-ABPP reactivity ratio at lysine P52594_K134 [2]: 1.0
isoTOP-ABPP reactivity ratio at lysine P61221_K478 [3]: 1.0
SMILES: CCn1cc(C(=O)Oc2c(F)c(F)c(F)c(F)c2F)c(=O)c2ccc(C)nc21 [fragment 28, Pentafluorophenyl 1-ethyl-7-methyl-4-oxo-1,4-dihydro-1,8-naphthyridine-3-carboxylate]
